The text below walks through data of patent CN102850337A, “多氮唑联螺烯酮类化合物及其制备方法和用途” (Sichuan University, priority 2011, dated 2013).

Where two headings read alike, the source gives them in different places.

Experiment [1] has as its system skin cancer A431 cells, colon cancer HCT116 cells, gastric cancer MKN45 cells, ovarian cancer SKOV-3 cells [皮肤癌A431细胞、结肠癌HCT116细胞、胃癌MKN45细胞、卵巢癌SKOV-3细胞]. The experiment in a line: CCK-8 in vitro tumour cell inhibition assay (Example 10, Table 1). Format: cell-based. The following applies: A431, HCT116, MKN45, SKOV-3 cells; statement on Table 1 (IC50).
The subject of experiment [2] is human breast cancer MDA-MB-231 cells [人乳腺癌MDA-MB-231细胞]. Nature of the experiment: CCK-8 in vitro tumour cell inhibition assay, MDA-MB-231 (Example 11, Tables 2-4). Type of experiment: cell-based.

Turning to `O=C1C=CC2(C=C1)OCC(=O)N2c1nc(-c2ccccc2)nn1-c1ccccc1` [LHDYX-1, 4-(1,3-二苯基-1H-1,2,4-三氮唑-5-基)-1-氧-4-氮螺[4.5]癸-6,9-二烯-3,8-二酮], the “inhibition of cancer cells compared with doxorubicin” value in experiment [1] was “对癌细胞的抑制作用高于目前临床中已广泛使用抗肿瘤药物阿霉素(Doxorubicin)”. The “inhibitory activity on cancer cells” value in experiment [1] is listed as “不同程度的抑制活性”. Also, the IC50 (commonly the point on the concentration scale where inhibition reaches its midpoint) stood at 26000 nM in experiment [2] (24h), 2880 nM in experiment [2] (48h) and 340 nM in experiment [2] (72h).
With `Cn1nc(-c2ccccc2)nc1N1C(=O)COC12C=CC(=O)C=C2` [LHDYX-2, 4-(1-甲基-3-苯基-1H-1,2,4-三氮唑-5-基)-1-氧-4-氮螺[4.5]癸-6,9-二烯-3,8-二酮], in experiment [2] (24h, read-out: inhibition rate), the inhibition (in general, the change of the read-out against control, counted positive when it falls) at 0.05 µM came out at 19.1%; the inhibition at 0.5 µM turned out to be 17.1%; the inhibition at 5 µM is 39.9%; the inhibition at 50 µM was found to be 100%. Also, in experiment [2] (48h, read-out: inhibition rate), the inhibition at 0.05 µM was 19%, the inhibition at 0.5 µM amounted to 76.4%, the inhibition at 5 µM came to 94.7% and the inhibition at 50 µM came out at 93.5%. Also, in experiment [2] (72h, read-out: inhibition rate), the inhibition at 0.05 µM was found to be 39.4%, the inhibition at 0.5 µM came to 95.3%, the inhibition at 5 µM amounted to 96.2% and the inhibition at 50 µM was found to be 96.4%.
On to `Cn1nc(N2C(=O)COC23C=CC(=O)C=C3)nc1-c1ccccc1` [LHDYX-3, 4-(1-甲基-5-苯基-1H-1,2,4-三氮唑-3-基)-1-氧-4-氮螺[4.5]癸-6,9-二烯-3,8-二酮], for which the IC50 is 2960 nM in experiment [2] (48h) and 1460 nM in experiment [2] (72h).
Regarding `COC1=CC(=O)C=CC12OCC(=O)N2c1nc(-c2ccccc2)nn1-c1ccccc1` (stereo not shown) [LHDYX-4, 4-(1,3-二苯基-1H-1,2,4-三氮唑-5-基)-6-甲氧基-1-氧-4-氮螺[4.5]癸-6,9-二烯-3,8-二酮], the inhibition at 5 µM in experiment [2] (24h, read-out: inhibition rate (class symbol)) is under 0%; in experiment [2] (48h, read-out: inhibition rate), 4.3%; in experiment [2] (72h, read-out: inhibition rate) it was 17.2%. Besides, the inhibition at 50 µM stood at 42% in experiment [2] (24h, read-out: inhibition rate); 98.4% in experiment [2] (48h, read-out: inhibition rate); 100% in experiment [2] (72h, read-out: inhibition rate).
